Reference: US20160354373A1, “METHODS OF TREATING ACUTE T CELL LEUKEMIA” (priority 2015, published 2016)

Assays:
[1] = tested on: Myc expression signatures; conditions: AMD3100 or vehicle for 4 days in vitro, OP9 co-culture
Description: FIG. 14A is a heat map depicting differentially expressed genes (Myc targets are indicated) in primary mouse T-ALL cells after 4 day culture with OP9 cells in the presence of AMD3100 or vehicle (right; n=3). […] Data represents 3 different experiments, with cells pooled from 1-3 mice per experiment.
Primary mouse T-ALL cells isolated from spleen were maintained on OP9 stromal cells in OptiMEM+GlutaMAX (Invitrogen) supplemented with 10% FBS, 5 ng/ml IL-7, penicillin and streptomycin, and 55 μM (3-mercaptoethanol and passaged every 3-4 days onto a fresh feeder layer. OP9 cells were pre-treated with 7.5 ng/mL mitomycin C (Sigma) to prevent feeder cell division. Mouse ETP T-ALL (Treanor et al., “Interleukin-7 Receptor Mutants Initiate Early T Cell Precursor Leukemia in Murine Thymocyte Progenitors with Multipotent Potential,” J. Exp. Med. 211:701-713 (2014), which is hereby incorporated by reference in its entirety) and a T-ALL cell line generated by ENU mutagenesis carrying a Notch1 PEST domain mutation (G7084 (ins)C7085) were maintained on OP9-DLL4 feeders. […]
Total RNA was extracted from samples using RNeasy Plus Mini Kit (Life Technologies). […] RNA libraries were then sequenced on the Illumina HiSeq 2000 or 2500 using 50 bp single-end reads. […]

[2] = recent clinical trials data; cited from earlier work
[3] = tested on: Notch1-ΔE-IRES-GFP+ T-ALL cells; conditions: AMD3465 20 nmol/hour via s.c. osmotic pump vs PBS; two weeks of treatment; started at >5% GFP+ blasts in blood
Excerpt: After GFP^+ leukemic cells reached 5% of white blood cells, osmotic pumps filled with AMD3465 (20 nmol/hour) or vehicle (PBS) were implanted subcutaneously (s.c.). The graphs show T-ALL cell numbers in the indicated tissues 2 weeks after treatment initiation. Bars represent the mean. […] After leukemia reached 5% of white blood cells, osmotic pumps filled with AMD3465 (25 nmol/hour) or vehicle were implanted s.c. Analysis was 2 weeks after treatment initiation. […] Values represent the mean frequency of hCD45^+ cells+/−SEM. […] Bars represent the mean.
For inhibition of CXCR4 in primary mouse T-ALL, mice were anaesthetized by isoflurane inhalation and implanted subcutaneously with osmotic pumps (model 2002; Alzet) filled with 40 mM AMD3465 (Tocris) or PBS (flow rate 0.5 ul/hour). […] For CXCR4 inhibition in xenografted patient T-ALL, NOD-SCID mice were implanted with osmotic pumps filled with 50 mM AMD3465 or PBS. Mice implanted with osmotic pumps were sacrificed 14 days later for analysis of tumor burden by flow cytometry.
To this end, two cohorts of lethally irradiated mice were transplanted with Notch1-ΔE-IRES-GFP^+ bone marrow progenitor cells, and after >5% peripheral blood lymphocytes constituted GFP^+ leukemic blasts, AMD3465 (20 nmol/hour) or PBS was administered via osmotic pump.

[4] = tested on: primary human T-ALL cells (hCD45+); conditions: two weeks
Excerpt: After GFP^+ leukemic cells reached 5% of white blood cells, osmotic pumps filled with AMD3465 (20 nmol/hour) or vehicle (PBS) were implanted subcutaneously (s.c.). […] After leukemia reached 5% of white blood cells, osmotic pumps filled with AMD3465 (25 nmol/hour) or vehicle were implanted s.c. Analysis was 2 weeks after treatment initiation. […] Values represent the mean frequency of hCD45^+ cells+/−SEM.
For human xenograft studies, NOD-SCID donor mice were used. […] 1-5×10^6 cells patient cells were transplanted into immunodeficient mouse strains via retro-orbital injection. Cells from spleen of these primary recipients were used for experiments.
For CXCR4 inhibition in xenografted patient T-ALL, NOD-SCID mice were implanted with osmotic pumps filled with 50 mM AMD3465 or PBS. Mice implanted with osmotic pumps were sacrificed 14 days later for analysis of tumor burden by flow cytometry.
First, the primary human leukemia cells were expanded in immune-deficient NOD/MrkBomTac-Prkdc^scid (NOD-SCID) hosts for 6 weeks. Subsequently, two million human T-ALL cells were transplanted into secondary NOD-SCID hosts and peripheral blood was monitored for the appearance of human CD45+ (hCD45+) leukemic cells. Once leukemia constituted >5% of white blood cells in blood, treatment began with AMD3465 or vehicle using osmotic pumps. Two weeks later, animals were sacrificed and the leukemia burden was assessed.

Myc [5] = conditions: 8 hours after s.c. AMD3465, 2 doses of 25 mg/kg 4 hours apart, vs PBS; wild-type T-ALL
Description: Whole cell lysates were prepared in RIPA buffer (50 mM Tris-HCl, 150 mM NaCl, 1% NP-40, 0.25% sodium deoxycholate, 5 mM EDTA) containing complete Mini protease and phosSTOP phosphatase inhibitors (Roche) and resolved by 8% SDS-PAGE gel electrophoresis. Proteins were transferred to nitrocellulose membranes (Bio-Rad) and probed with primary antibodies raised against c-Myc (polyclonal, Cell Signaling Technologies); 0-tubulin (polyclonal, Abcam); and β-actin (clone C4, Santa Cruz Biotechnologies). Following incubation with horseradish peroxidase (HRP)-conjugated anti-mouse or anti-rabbit secondary antibodies (Jackson laboratories), proteins were detected using the SuperSignal West Pico ECL Kit (Thermo Scientific) and exposed to film or imaged using the ChemiDoc MP system (Bio-rad).
For inhibition of CXCR4 in primary mouse T-ALL, mice were anaesthetized by isoflurane inhalation and implanted subcutaneously with osmotic pumps (model 2002; Alzet) filled with 40 mM AMD3465 (Tocris) or PBS (flow rate 0.5 ul/hour).

Myc [6] = conditions: 4 days culture on OP9 cells with AMD3465 or vehicle, in vitro
Description: (§1) Primary mouse T-ALL cells isolated from spleen were maintained on OP9 stromal cells in OptiMEM+GlutaMAX (Invitrogen) supplemented with 10% FBS, 5 ng/ml IL-7, penicillin and streptomycin, and 55 μM (3-mercaptoethanol and passaged every 3-4 days onto a fresh feeder layer. OP9 cells were pre-treated with 7.5 ng/mL mitomycin C (Sigma) to prevent feeder cell division. Mouse ETP T-ALL (Treanor et al., “Interleukin-7 Receptor Mutants Initiate Early T Cell Precursor Leukemia in Murine Thymocyte Progenitors with Multipotent Potential,” J. Exp. Med. 211:701-713 (2014), which is hereby incorporated by reference in its entirety) and a T-ALL cell line generated by ENU mutagenesis carrying a Notch1 PEST domain mutation (G7084 (ins)C7085) were maintained on OP9-DLL4 feeders. AMD3100 octahydrochloride hydrate (10 ug/mL in water; Sigma), AMD3465 hexahydrobromide (50 ug/mL in water; Tocris or Cayman Chemical) or the corresponding vehicle was added to culture media at the start of the culture period.

[7] = tested on: primary mouse T-ALL cells; conditions: MIG-IRES-GFP-cMyc vs control transduced cells; 4 days OP9 co-culture
Description: Data represents 1 experiment with 3 replicates per group for each AMD3465 concentration tested. Error bars represent +/−SD.
as §1

Row | enrichment of genes down-regulated by treatment in Myc DNA binding databases (GSEA) [1] | SMILES | absorption [2] | tolerability [2] | leukemia burden across all tissues surveyed (T-ALL cell numbers) [3] | number of hCD45+ cells in blood and spleen ([4]; AMD3465 25 nmol/hour via s.c. osmotic pump vs vehicle, patient 1 and 2 xenografts in NOD-SCID) | T-ALL infiltration of brain, liver and lungs (histo-pathological analysis) ([4]; AMD3465 via osmotic pump vs PBS, patient 1 xenograft) | splenomegaly ([4]; AMD3465 via osmotic pump vs vehicle (PBS), xenografted NOD-SCID mice) | Myc protein levels in T-ALL cells (Myc [5]) | Myc protein expression (MYC-GFP fusion allele) in mouse LIC cells (Myc [6]) | proliferation of T-ALL cells in the presence of AMD3465 upon Myc overexpression [7]
1 | significant enrichment | c1cc(CN2CCCNCCNCCCNCC2)ccc1CN1CCCNCCNCCCNCC1 [AMD3100, 1,1′-[1,4-phenylenebis(methylene)]bis[1,4,8,11-tetraazacyclotetradecane]] | absorbed quickly | well tolerated | – | – | – | – | – | – | –
2 | – | c1ccc(CNCc2ccc(CN3CCCNCCNCCCNCC3)cc2)nc1 [AMD3465, N[1,4,8,11-tetraazacyclotetradecanyl-1,4-phenylene-bis-(methylene)]-2-aminomethyl-pyridine] | – | – | substantial reduction | significantly reduced | virtually leukemia-free | substantially decreased | reduced | Reduced | partially restored
